Measurements from patent US12539326B2, “Methods for treating Alzheimer's disease using semaglutide” (Novo Nordisk A/S, priority 2019, dated 2026).

How the values were obtained:
[1] = tested on: microglial inflammatory marker Iba1 in the hippocampus; test: LPS-induced neuroinflammation in mice, Iba1 immunohistochemistry of the hippocampus; type: in vivo, mouse; settings: C57BL/6 mice, Day 28, LPS+semaglutide 30 nmol/kg s.c. once per day; mean, SEM 0.49%; LPS+vehicle 12.17%; p<0.01
Description: LPS-induced neuroinflammation is used as a non-genetic model of Alzheimer's disease in rodents. LPS is an endotoxin from gram-negative bacteria that provides a persistent inflammatory stimulus activating brain immune cells (neuroimmune cells). Microglia are a brain immune cell type activated by LPS, and the degree of neuroinflammation can be assessed by the area of microglia in brain tissue as measured by the microglia-specific marker ionized calcium binding adaptor molecule 1 (Iba1).
Here, LPS-induced neuroinflammation in mice was used to assess the impact of semaglutide on attenuating brain inflammation in the hippocampus, a brain region involved in memory and learning which is deteriorated in Alzheimer's Disease.
The experiment was carried out using C57BL/6 mice at 8-10 weeks of age. […]
Immediately after termination, whole brains were collected for immunohistochemical (IHC) analyses of neuroinflammation markers. […] The primary antibody was detected using a linker secondary antibody followed by amplification using a polymeric HRP-linker antibody conjugate. […]
Quantitative assessment of Iba1 signal was performed to measure the area of microglia in the hippocampus of the tissue section. […] The quantitative estimates of IHC-positive staining were calculated as an area fraction (AF) of the total tissue area where: […]

SAMP8 mice [2] = test: Step-through passive avoidance test (long-term memory) in SAMP8 mice; type: in vivo, mouse; settings: SAMP8 mice at 18 weeks of age, retention test, 30 nmol/kg s.c. once a day, mean
Description: (§1) Here, SAMP8 mice were utilized to characterize the impact of semaglutide treatment on memory deficits and cognitive decline. Two behavioural tests commonly used to assess cognitive deficits in rodents were employed to assay effects on short-term memory (Y-maze test) and long-term memory (step-through passive avoidance test). The Y-maze is test of short-term memory, assessing spatial working memory and exploratory behaviour by measuring spontaneous alternations, which is the frequency of entering a new arm of the maze rather than returning to one that was previously visited (described in methods). The step-through passive avoidance test measures associative long-term memory by assessing the learning of an association of an aversive stimulus to a particular context (described in methods). SAMP8 mice have measurable deficits in both tests as they age.
The experiment was carried out using SAMP8 mice with the following treatment groups: SAMP8 vehicle treated (n=24) and SAMP8 semaglutide (30 nmol/kg) treated (n=11). […]
The step through passive avoidance performance was performed at 18 weeks of age. […] The step-through latency was recorded up to 300 s, defined as the time it took the mouse to enter the darkened compartment during the retention test. Escape latency was as recorded, defined as the time in the retention test to escape the darkened chamber following the application of a footshock.

SAMP8 mice [3] = test: Y-maze test (short-term memory) in SAMP8 mice; type: in vivo, mouse; settings: SAMP8 mice at 16 weeks of age; 30 nmol/kg s.c. once a day; mean, SEM 1.6%; vehicle 42.8%; p<0.0001
Description: as §1, with “age. […]” for “age.”
Testing in the Y-maze was performed at 8 weeks of age and 16 weeks of age, at approximately 15 and 71 days following treatment initiation respectively. […] The series of arm entries including possible returns into the same arm was monitored and alternation was defined as entries into all three arms on consecutive occasions. The number of maximum alternations was therefore the total number of arm entries minus two and the percentage of alternation was be calculated as (actual alternations/maximum alternations)×100.

[4] = tested on: Patients with type 2 diabetes at high risk for or with established cardiovascular disease; test: Dementia in pooled double-blind RCTs (LEADER, SUSTAIN-6, PIONEER 6), GLP-1 receptor agonist versus placebo; type: in vivo, human; settings: each RCT, active arm vs. placebo; for Dementia SMQ GLP-1 Receptor Agonists no. of events: median follow-up 3.8 years (LEADER), 2.1 years (SUSTAIN-6), 1.3 years (PIONEER 6)
Experimental: Exposure to GLP-1 receptor agonist and subsequent diagnosis of dementia was assessed in data sources with long term treatment exposure including three pooled double-blind randomized controlled trials (RCTs) and a nationwide cohort of patients with diabetes. This was done with the aim of investigating whether use of GLP-1 receptor agonists reduces the onset of dementia in patients with diabetes.
A triangulation approach integrating study designs and data sources with different key sources of potential bias was employed to obtain a more reliable answer. First, data was pooled from three large RCTs with GLP-1 receptor agonists; liraglutide (LEADER; 9,340 patients), subcutaneous semaglutide (SUSTAIN-6; 3,297 patients), and oral semaglutide (PIONEER 6; 3,183 patients). All three trials were multicenter, double-blind, placebo-controlled cardiovascular outcomes trials. Patients with type 2 diabetes at high risk for or with established cardiovascular disease were randomly assigned in a 1:1 ratio, to receive placebo or liraglutide (LEADER), or semaglutide (SUSTAIN-6; PIONEER 6) in addition to standard of care. In these trials, the treatment for diabetes (excluding GLP-1 receptor agonists, dipeptidyl peptidase-4 inhibitors (DPP4 inhibitors), and pramlintide) was adjusted or added in both arms, at the investigator's discretion, as previously described. The formulation tested in LEADER was an aqueous composition comprising liraglutide, disodium phosphate dihydrate, propylene glycol, and phenol at pH 8.15. The formulation tested in SUSTAIN-6 was an aqueous composition comprising semaglutide, disodium phosphate dihydrate, propylene glycol, and phenol at pH 7.4. The formulation tested in PIONEER was a tablet comprising semaglutide and SNAC. […]
For the pooled RCTs, an intention-to-treat analysis was performed using Cox regression with treatment assignment as the only explanatory variable to determine the hazard ratio for developing dementia with GLP-1 receptor agonists versus placebo. […] The incidence of dementia with death as competing risk was calculated using the Aalen-Johansen estimator.

N-epsilon26-[2-(2-{2-[2-(2-{2-[(S)-4-Carboxy-4-(17-carboxyheptadecanoylamino)butyrylamino] ethoxy}ethoxy)acetylamino]ethoxy} ethoxy)acetyl][Aib8,Arg34]GLP-1-(7-37) [semaglutide]
hippocampal Iba1 area (area fraction) [1]: 8.53% | escape latency (SAMP8 mice [2]; SEM 3.0 seconds, vehicle 88.8 seconds, p=0.01): 19.0 s | step-through latency (SAMP8 mice [2]; SEM 14.5 seconds, vehicle 109.8 seconds, p<0.0001): 260.5 s | percentage alternation behaviour in the Y-maze (SAMP8 mice [3]): 79.1% | Dementia SMQ GLP-1 Receptor Agonists no. of events ([4]; listed as Semaglutide (oral)): 0 | Dementia SMQ GLP-1 Receptor Agonists no. of events ([4]; listed as Semaglutide (s.c)): 3 | Dementia SMQ GLP-1 Receptor Agonists rate ([4]; unit not printed in table (b13 gives pooled rates per 1000 patient-years)): 0.88
